“Also recorded” adds a separate entry of the source. Where two headings read alike, the source gives them in different places.
Tests used:
[1] = Platinum distribution study in vivo by ICP-MS; set-up: species or system CT-26 tumor-bearing BALB/c mice; conditions: i.v., 24 h after second dose
Protocol: (§1) Tumor size was determined daily via manual caliper measurement. […] Animals were euthanized via cervical dislocation.
The generation and treatment of tumor-bearing mice are outlined in the section “In vivo syngraft experiments” described above. Mouse tissues were processed as described previously.[13] Briefly, serum was isolated from peripheral blood by centrifugation (900g, 10 min, 4 °C, twice). Tissues were digested in 20% nitric acid and hydrogen peroxide using an open-vessel graphite digestion system. The platinum concentration was determined by ICP-MS analysis; for details see “Intracellular platinum accumulation in vitro by ICP-MS”.

[2] = test system: CT-26 tumors; assay: Anticancer efficacy in vivo, syngeneic colorectal carcinoma; set-up: species or system BALB/c mice; conditions: i.v. twice a week for two weeks, equimolar to 9 mg kg^−1 oxaliplatin
Protocol: as §1

[3] = biological target: T1, albumin (Bos taurus, UniProt P02769); assay: Albumin binding in fetal calf serum, SEC-ICP-MS; type: in vitro ADME; conditions: 50 μM in FCS
T1 construct: Serum proteins have a retention span of ∼2–4 min as part of the high-molecular weight fraction with albumin at ∼4 min; tissue Sigma-Aldrich; host or cells: fetal calf serum (whole serum, buffered with 150 mM phosphate buffer pH 7.4)
T1 sequence (P02769 25-607): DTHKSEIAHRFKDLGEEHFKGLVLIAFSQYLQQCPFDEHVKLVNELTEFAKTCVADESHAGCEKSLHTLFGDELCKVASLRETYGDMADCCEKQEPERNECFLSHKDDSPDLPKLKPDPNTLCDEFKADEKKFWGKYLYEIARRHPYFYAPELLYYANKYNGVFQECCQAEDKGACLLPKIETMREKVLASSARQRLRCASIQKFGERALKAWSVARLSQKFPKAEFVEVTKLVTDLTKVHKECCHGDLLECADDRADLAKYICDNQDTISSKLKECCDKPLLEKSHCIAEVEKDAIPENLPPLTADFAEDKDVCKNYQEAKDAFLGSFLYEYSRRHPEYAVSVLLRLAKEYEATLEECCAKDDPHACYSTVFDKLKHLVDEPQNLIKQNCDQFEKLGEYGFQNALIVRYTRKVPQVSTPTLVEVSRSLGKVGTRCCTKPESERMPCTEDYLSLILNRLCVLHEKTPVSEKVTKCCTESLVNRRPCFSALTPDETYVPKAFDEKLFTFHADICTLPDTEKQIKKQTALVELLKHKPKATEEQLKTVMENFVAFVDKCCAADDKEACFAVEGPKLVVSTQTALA
Protocol: FCS was purchased from Sigma-Aldrich and buffered with 150 mM PB pH 7.4 to guarantee a stable pH. The platinum(IV) complexes were dissolved in 150 mM PB (pH 7.4) at a concentration of 5 mM and diluted 1 : 100 in the buffered serum to obtain a final concentration of 50 μM. The samples were then incubated in an autosampler at 37 °C and analyzed for 24 h. Between each sample, a pure water blank was measured. For SEC-ICP-MS measurements an Agilent 1260 Infinity system coupled to an Agilent 7800 ICP-MS equipped with a dynamic reaction cell was used. Oxygen (purity 5.5, Messer Austria GmbH, Gumpoldskirchen, Austria) was used as a reaction gas.

[4] = Hematological analysis 24 h after the second dose; conditions: two i.v. doses equimolar to 9 mg kg^−1 oxaliplatin, 24 h after second dose
Protocol: (§2) Mice were kept in groups of four per cage with sterilized paper-based environmental enrichment and food and water ad libitum, under pathogen-free conditions and a controlled environment with a 12 h light–dark cycle. Syngeneic models of colorectal carcinoma were generated via subcutaneous injection of CT-26 cells (0.5 × 10^6 cells in 50 μL of serum-free RPMI-1640 medium) into the right flank of 8–12 weeks old BALB/c mice. […] All animals were euthanized 24 h after the second dose. […] To determine the anticancer efficacy of the investigated compounds, treatment started 4 d after tumor implantation, when all tumors were measurable (>25 mm^3) using a twice-weekly treatment scheme for two weeks. Tumor size was determined daily via manual caliper measurement. The tumor volume was calculated as tumor volume = (length × diameter × diameter)/2. The overall condition, shape, and activity of the animals were assessed daily. Peripheral blood was collected from the submandibular vein in K3E K3EDTA tubes (Greiner Bio-One; Kremsmünster, AUT) on ice and was analyzed for hematological parameters (red blood cells (RBCs), hemoglobin (HGB), hematocrit (HCT), red cell distribution width (RDW), mean corpuscular volume (MCV), white blood cells (WBCs), lymphocytes (LYM), monocytes (MO), granulocytes (GRA), and platelets (PLT) using a Vet ABC hematology analyzer (scil Animal Care GmbH, Viernheim, Germany). EDTA-blood was centrifuged (900g, 10 min) twice and the supernatant (EDTA-plasma) was stored at −20 °C for subsequent cytokine/chemokine analysis using a Luminex detection platform. All animal experiments were performed with humane endpoints based on Federation of European Laboratory Animal Science Associations guidelines and according to the regulations of the Ethics Committee for the Care and Use of Laboratory Animals at the Medical University Vienna (proposal number BMBWF 2023–0.122.324). Animals were euthanized upon reaching a tumor volume of >1500 mm^3, a loss in body weight (>20%), tumor ulceration or other indications of deteriorated health. Animals were euthanized via cervical dislocation.

[5] = Cytokine and chemokine levels in plasma of treated animals, Luminex; type: in vivo, CT-26-bearing BALB/c mice; conditions: 24 h after second dose
Protocol: Next, the ProcartaPlex (96-well) multiplex assay panel was performed according to the manufacturer's recommendations. In brief, the capture bead mix was incubated with test samples (undiluted SN or mouse plasma) or standard mix overnight. The SN of three independent experiments or the plasma of four animals per treatment group was loaded onto the multiplex assay plate. Next, biotinylated detection antibody mix and Streptavidin-PE were added to the plate. Following the recommended washing steps, the samples were incubated in a reading buffer and were measured using a Luminex xMAP platform (Bio-Plex MAGPIX Multiplex Reader; Bio-Rad Laboratories) and analyzed using xPONENT software.
as §1

[6] = test system: immune cell populations in tumor and spleen; assay: Immune activation and infiltration by flow cytometry; type: in vivo, CT-26-bearing BALB/c mice; conditions: 24 h after second dose
Protocol: as §1
The generation and treatment of tumor-bearing mice are outlined in the section “In vivo syngraft experiments” above. Samples were kept on ice during the whole procedure. Tissues were prepared as described previously.[55] In brief, tumor and spleen tissues were collected and mechanically dissociated in DPBS buffer containing Ca^2+/Mg^2+ and FCS (5%). Tumor samples were digested using collagenase VIII (1 mg mL^−1) in a DPBS buffer (without Ca^2+/Mg^2+) supplemented with DNAse I (1 mg mL^−1) for 15 min at 37 °C under constant shaking. Samples were filtered using 70 μm cell strainers in a DPBS buffer (without Ca^2+/Mg^2+) containing FCS (5%), EDTA (5 mM) and DNase I (20 μg mL^−1). Subsequent washing steps were performed in DPBS buffer (without Ca^2+/Mg^2+) containing FCS (5%), EDTA (5 mM) and DNase I (20 μg mL^−1), unless indicated otherwise. Red blood cells were removed by short incubation with ACK buffer. For blocking, samples were incubated with the Ultra-LEAF purified anti-mouse CD16/CD32 antibody (clone: 93; #101330; RRID:AB_2783037; dilution: 1 : 1000) (Biolegend, San Diego, CA, USA) in the BD Horizon Brilliant Stain Buffer (#563794; BD Biosciences) for 10 min. Next, the samples were incubated with an antibody mixture in the BD Horizon Brilliant Stain Buffer for 30 min. Fluorescent dye-labeled antibodies targeting murine CD3 (17A2; #100203; RRID:AB_312661; 1 : 50), CD8a (53-6.7; #100738; RRID:AB_11204079; 1 : 160), CD19 (6D5; #115528; RRID:AB_493735; 1 : 400), CD49b (DX5; #108924; RRID:AB_2565271; 1 : 229), CD11b (M1/70; #101228; RRID:AB_893232; 1 : 80), and CD69 (H1.2F3; # 104512; RRID:AB_493564; 1 : 40) were purchased from BioLegend. The antibody targeting murine CD4 (RM4-5; # 85-0042-U100; 1 : 80) and the viability dye Ghost Dye Red 780 (#13-0865-T100; 1 : 1000) were purchased from Tonbobio (San Diego, CA, USA). The antibody targeting CD45 (30-F11; #363-0451-82; RRID:AB_2925264; 1 : 80) was purchased from Life Tech (Invitrogen). For intracellular staining of granzyme B (GzmB) (QA16A02; #372208; RRID:AB_2687032; 1 : 20) and FoxP3 (MF-14; #320014; RRID:AB_439750; 1 : 100) the True-Nuclear Transcription Factor Buffer Set (Biolegend; #424401) was used according to the manufacturer's recommendations. In brief, samples were incubated with Perm Fix Solution for 60 min at RT. Next, the samples were stained with antibodies targeting GzmB and FoxP3 (diluted in Perm buffer) for 30 min at RT. […] Next day, the samples were analyzed using a Cytek Aurora 5L (Cytek Biosciences, CA, USA) spectral flow cytometer. Data were analyzed using SpectroFlo (v3.2.1) (Cytek Biosciences) and FlowJo (v10.8.1) (FlowJo LLC, Ashland, OR, USA) software.

[7] = Hematological analysis after long-term treatment; conditions: 72 h after the fourth dose
Protocol: as §2

[8] = test system: IRF pathway (STING-dependent); assay: IRF-inducible luciferase reporter in THP1-Dual reporter cell model; type: cell-based, human
Excerpt: (§3) The THP1-Dual™ reporter cell model for simultaneously monitoring the activity of the IRF and NF-κB pathway contains an IRF-inducible luciferase reporter under the control of an ISG54 minimal promoter in conjunction with five interferon (IFN)-stimulated response elements, and an induced SEAP driven by an IFN-β minimal promoter fused to five copies of the NF-κB consensus transcriptional response element and three copies of the c-Rel binding site. The luciferase and SEAP reporter are measurable in the cell culture supernatant using QUANTI-Luc™ 4 Lucia/Gaussia (InvivoGen) and QUANTI-Blue™ (InvivoGen) solution, respectively. Cells were seeded at 1 × 10^5 cells per well in 96-well plates in RPMI-1640 medium, supplemented with 10% FCS, L-glutamine and Pen-Strep. After 2 h of recovery, the compounds were applied at the concentrations indicated in triplicate. The cell culture supernatant (SN) was collected after 24 h of drug incubation and secreted luciferase and SEAP reporter levels were measured according to the manufacturer's recommendations. In brief, for the detection of luciferase, 20 μL of SN were transferred into 96-well white opaque plates, and 30 μL of QUANTI-Luc™ reagent were added per well using an injector module in a multimode microplate reader (Tecan Spark, Zurich, Switzerland). Luminescence was recorded at a reading time of 0.1 second. For the detection of SEAP, 10 μL of SN were transferred to 96-well plates and 90 μL of QUANTI-Blue™ were added per well. Absorbance was measured at 620 nm. Half-maximal effective concentrations (EC50 values) were derived via interpolation from dose–response curves, modeled with the four-parameter logistic (4PL) nonlinear regression model in GraphPad Prism. For comparison, the maximal response rate of the prodrug was depicted in the percent of the maximal response rate achieved by SR-717 or MSA-2 (%EMAX) at the respective concentrations tested. Activatability, tested in co-incubation experiments with AA (50 μM), was expressed as the area under the curve (AUC) ratio of +AA vs. −AA-treated cells. The STING-dependency of the reporter induction was tested by co-administration of the STING inhibitor H-151 (10 μM), added to the cell culture medium 2 h before applying the investigated compounds. In addition to monitoring secreted reporter levels, the cell viability of the reporter cells was determined after 24 h of drug treatment by an MTT-based cell viability assay.

[9] = test system: IRF pathway (STING-dependent); set-up: method as in PMID 32820126; conditions: read-out: IRF EC50, previous report; cited from earlier work
[10] = test system: THP1-Dual, HCT116, HCT116/OxR and CT-26 cells; assay: MTT-based cell viability assay, 72 h, statements over all investigated cell lines; set-up: species or system human and murine; conditions: none of the investigated cell lines vulnerable, read-out: IC50 of free single agent
Protocol: Cell models were seeded (2–2.5 × 10^3 cells per well) in 96-well plates. After 24 h of recovery, the compounds were applied at the concentrations indicated in triplicate. Cell viability was determined after 72 h of continuous drug incubation using an MTT-based cell viability assay (EZ4U, Biomedica, Vienna, Austria) according to the manufacturer's recommendations. Absorbance was measured at 450 nm (vs. 620 nm as reference) using a multimode microplate reader (Tecan Spark, Zurich, Switzerland). Half-maximal inhibitory concentrations (IC50 values) were derived via interpolation from dose–response curves, modeled with the four-parameter logistic (4PL) nonlinear regression model in GraphPad Prism (La Jolla, CA, USA) from at least three independent experiments.

[11] = test system: NF-κB pathway (STING-dependent); assay: NF-κB-inducible SEAP reporter in THP1-Dual reporter cell model; type: cell-based, human
Excerpt: as §3

[12] = two doses, vs Ox-MSA-PEG-Ca or oxaliplatin
[13] = 24 h, maximal response relative to SR-717
[14] = 24 h exposure, normalized to cell viability, oxaliplatin in combinations 5 μM

For `COc1cc2cc(C(=O)CCC(=O)[O][Pt-2]34([O]C(=O)NCCOCCOCCOCCOCCN5C(=O)C=CC5=O)([NH2+][C@@H]5CCCC[C@H]5[NH2+]3)[O]C(=O)C(=O)[O]4)sc2cc1OC` [Ox-MSA-Mal, (OC-6-34)-[(1R,2R)-1,2-cyclohexanediamino]-oxalato-[4-(5,6-dimethoxybenzo[b]thiophen-2-yl)-4-oxobutylcarboxylato]-[(14-(2,5-dioxo-2,5-dihydro-1H-pyrrol-1-yl)-3,6,9,12-tetraoxatetradecyl)carbamato]platinum(IV)], the “liver platinum level relative to tumor” value ([1]; two doses equimolar to 9 mg kg^−1 oxaliplatin) was 1.4 fold, the “platinum accumulation in peripheral blood cells” value [1, 12] was “clearly lowered accumulation” and the “platinum levels in serum and tumor” value [1, 12] was “distinctly elevated platinum levels”. For the same compound, the tumor growth [2] was “distinctly stronger anticancer efficacy; also recorded: significantly inhibited colorectal tumor growth”, the “platinum bound to albumin” value ([3]; 150 mM PB pH 7.4, 37 °C, 0 h time point) was “approximately 99%” and the “stability of albumin drug conjugate” value ([3]; 37 °C, no release of platinum from the protein) was “stable over 24 h”. For the same compound, the anemia [4] was “not”, the “plasma chemokines CXCL9 and CXCL11” value [5] was “most strongly activated” and the “FoxP3+ CD4+ T cell compartment in the spleen” value [6] was “selectively elevated”. The RBC toxicity [7] was “strongly reduced”, the “platelet counts (PLT) / thrombocytopenia” value [7] was “not evident” and the “absolute counts of white blood cells and subpopulations” value ([7]; i.v. twice a week for two weeks) was “induced an increase”.

With `O=C(Nc1cc(F)c(F)cc1C(=O)[O-])c1ccc(-n2ccnc2)nn1.[Li+]` [SR-717] the “IRF EC50 ratio fold SR-717” value ([8]; 24 h) was 1.0 fold, the “activation of IRF signaling pathway” value ([8]; 24 h) was “robustly activated” and the “IRF %EMAX of SR-717” value [8, 13] was 100%. For the same compound, the EC50 [8, 14] was 2900 nM, the “impact of reducing conditions on IRF-induced reporter signal (AUC ratio +AA/−AA)” value ([8]; AA 50 μM) was “no notable modulation” and the EC50 [9] was 2100 nM. For the same compound, the IC50 [10] was greater than 75000 nM, the “NF-κB EC50 ratio fold SR-717” value ([11]; 24 h) was 1.0 fold and the “activation of NF-κB signaling pathway” value ([11]; 24 h) was “robustly activated”. The “NF-κB %EMAX of SR-717” value [11, 13] was 100% and the EC50 [11, 14] was 5800 nM.
